# Values quoted from earlier work, collected in patent publication US20090142410A1, “Nutritional composition and method for increasing creatine uptake and retention in skeletal muscle, increasing muscle mass and strength, increasing exercise capacity and for aiding recovery following exercise” (priority 2006, published 2009).
# Details: concomitant ingestion with carbohydrates
structure (smiles),measurement,value
"CN(CC(=O)O)C(=N)N [Creatine, N-methyl-N-guanyl Glycine]",improvement of Creatine retention,up to 60%
